Test results as given in PubChem BioAssay (NCI).
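These data come from cells grown in 96-well plates and exposed to compound for 48 hours at five concentrations. Here, GI50 denotes the concentration required for 50% inhibition of growth. TGI marks complete inhibition of growth.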

Key:
Test in all cases: NCI tumour cell line growth inhibition, 48 h
786-0 renal = tested on: 786-0 renal
A498 renal = tested on: A498 renal
A549 NSCLC = tested on: A549 NSCLC
ACHN renal = tested on: ACHN renal
BT-549 breast = tested on: BT-549 breast
CAKI-1 renal = tested on: CAKI-1 renal
CCRF-CEM leukemia = tested on: CCRF-CEM leukemia
COLO 205 colon = tested on: COLO 205 colon
DU-145 prostate = tested on: DU-145 prostate
EKVX NSCLC = tested on: EKVX NSCLC
HCC-2998 colon = tested on: HCC-2998 colon
HCT-116 colon = tested on: HCT-116 colon
HCT-15 colon = tested on: HCT-15 colon
HL-60(TB) leukemia = tested on: HL-60(TB) leukemia
HOP-62 NSCLC = tested on: HOP-62 NSCLC
HOP-92 NSCLC = tested on: HOP-92 NSCLC
HS 578T breast = tested on: HS 578T breast
HT29 colon = tested on: HT29 colon
IGROV1 ovarian = tested on: IGROV1 ovarian
K-562 leukemia = tested on: K-562 leukemia
KM12 colon = tested on: KM12 colon
LOX IMVI melanoma = tested on: LOX IMVI melanoma
M14 melanoma = tested on: M14 melanoma
MALME-3M melanoma = tested on: MALME-3M melanoma
MCF7 breast = tested on: MCF7 breast
MDA-MB-231 breast = tested on: MDA-MB-231 breast
MDA-MB-435 = tested on: MDA-MB-435
MDA-MB-468 breast = tested on: MDA-MB-468 breast
MOLT-4 leukemia = tested on: MOLT-4 leukemia
NCI-H226 lung = tested on: NCI-H226 lung
NCI-H23 lung = tested on: NCI-H23 lung
NCI-H460 lung = tested on: NCI-H460 lung
NCI-H522 lung = tested on: NCI-H522 lung
NCI/ADR-RES ovarian = tested on: NCI/ADR-RES ovarian
OVCAR-3 ovarian = tested on: OVCAR-3 ovarian
OVCAR-4 ovarian = tested on: OVCAR-4 ovarian
OVCAR-5 ovarian = tested on: OVCAR-5 ovarian
OVCAR-8 ovarian = tested on: OVCAR-8 ovarian
PC-3 prostate = tested on: PC-3 prostate
RPMI-8226 leukemia = tested on: RPMI-8226 leukemia
RXF 393 renal = tested on: RXF 393 renal
SF-268 CNS = tested on: SF-268 CNS
SF-295 CNS = tested on: SF-295 CNS
SF-539 CNS = tested on: SF-539 CNS
SK-MEL-2 melanoma = tested on: SK-MEL-2 melanoma
SK-MEL-28 melanoma = tested on: SK-MEL-28 melanoma
SK-MEL-5 melanoma = tested on: SK-MEL-5 melanoma
SK-OV-3 ovarian = tested on: SK-OV-3 ovarian
SN12C renal = tested on: SN12C renal
SNB-19 CNS = tested on: SNB-19 CNS
SNB-75 CNS = tested on: SNB-75 CNS
SR leukemia = tested on: SR leukemia
SW-620 colon = tested on: SW-620 colon
T-47D breast = tested on: T-47D breast
TK-10 renal = tested on: TK-10 renal
U251 CNS = tested on: U251 CNS
UACC-257 melanoma = tested on: UACC-257 melanoma
UACC-62 melanoma = tested on: UACC-62 melanoma
UO-31 renal = tested on: UO-31 renal

O=C(c1ccc(Cl)cc1)C(c1c[nH]c2ccccc12)c1c[nH]c2ccccc12
GI50 (786-0 renal): 2.12 µM
TGI (786-0 renal): 4.22 µM
GI50 (A498 renal): 18 µM
TGI (A498 renal): 34.1 µM
GI50 (A549 NSCLC): 13.5 µM
TGI (A549 NSCLC): 31.6 µM
GI50 (ACHN renal): 1.91 µM
TGI (ACHN renal): 4.17 µM
GI50 (BT-549 breast): 4.09 µM
TGI (BT-549 breast): 14.4 µM
GI50 (CAKI-1 renal): 2.94 µM
TGI (CAKI-1 renal): 14.3 µM
GI50 (CCRF-CEM leukemia): 3.21 µM
TGI (CCRF-CEM leukemia): > 100 µM
GI50 (COLO 205 colon): 16.3 µM
TGI (COLO 205 colon): 31.2 µM
GI50 (DU-145 prostate): 4.36 µM
TGI (DU-145 prostate): 16.4 µM
GI50 (EKVX NSCLC): 6.46 µM
TGI (EKVX NSCLC): 20.8 µM
GI50 (HCC-2998 colon): 2.33 µM
TGI (HCC-2998 colon): 5.8 µM
GI50 (HCT-116 colon): 1.65 µM
TGI (HCT-116 colon): 3.16 µM
GI50 (HCT-15 colon): 2.21 µM
TGI (HCT-15 colon): 6.16 µM
GI50 (HL-60(TB) leukemia): 2.6 µM
TGI (HL-60(TB) leukemia): 8.35 µM
GI50 (HOP-62 NSCLC): 13 µM
TGI (HOP-62 NSCLC): 27.3 µM
GI50 (HOP-92 NSCLC): 3.32 µM
TGI (HOP-92 NSCLC): 16.8 µM
GI50 (HS 578T breast): 13.4 µM
TGI (HS 578T breast): 45.8 µM
GI50 (HT29 colon): 2.79 µM
TGI (HT29 colon): 6.97 µM
GI50 (IGROV1 ovarian): 4.05 µM
TGI (IGROV1 ovarian): 16.8 µM
GI50 (K-562 leukemia): 2.99 µM
TGI (K-562 leukemia): 9.64 µM
GI50 (KM12 colon): 8.98 µM
TGI (KM12 colon): 22 µM
GI50 (LOX IMVI melanoma): 1.68 µM
TGI (LOX IMVI melanoma): 3.26 µM
GI50 (M14 melanoma): 2.9 µM
TGI (M14 melanoma): 12.7 µM
GI50 (MALME-3M melanoma): 3.41 µM
TGI (MALME-3M melanoma): 15.9 µM
GI50 (MCF7 breast): 2.38 µM
TGI (MCF7 breast): 8.25 µM
GI50 (MDA-MB-231 breast): 4.87 µM
TGI (MDA-MB-231 breast): 20.2 µM
GI50 (MDA-MB-435): 3.85 µM
TGI (MDA-MB-435): 14.3 µM
GI50 (MDA-MB-468 breast): 2.69 µM
TGI (MDA-MB-468 breast): 7.65 µM
GI50 (MOLT-4 leukemia): 2.69 µM
TGI (MOLT-4 leukemia): 12.2 µM
GI50 (NCI-H226 lung): 8.88 µM
TGI (NCI-H226 lung): 24.7 µM
GI50 (NCI-H23 lung): 4.05 µM
TGI (NCI-H23 lung): 17.4 µM
GI50 (NCI-H460 lung): 3.65 µM
TGI (NCI-H460 lung): 14.9 µM
GI50 (NCI-H522 lung): 1.74 µM
TGI (NCI-H522 lung): 3.52 µM
GI50 (NCI/ADR-RES ovarian): 3.52 µM
TGI (NCI/ADR-RES ovarian): 15.8 µM
GI50 (OVCAR-3 ovarian): 2.56 µM
TGI (OVCAR-3 ovarian): 7.18 µM
GI50 (OVCAR-4 ovarian): 5.23 µM
TGI (OVCAR-4 ovarian): 18.2 µM
GI50 (OVCAR-5 ovarian): 3.79 µM
TGI (OVCAR-5 ovarian): 15.5 µM
GI50 (OVCAR-8 ovarian): 11.2 µM
TGI (OVCAR-8 ovarian): 24.2 µM
GI50 (PC-3 prostate): 3.08 µM
TGI (PC-3 prostate): 12.7 µM
GI50 (RPMI-8226 leukemia): 3.01 µM
TGI (RPMI-8226 leukemia): 15.4 µM
GI50 (RXF 393 renal): 2.93 µM
TGI (RXF 393 renal): 9.21 µM
GI50 (SF-268 CNS): 4.85 µM
TGI (SF-268 CNS): 19.8 µM
GI50 (SF-295 CNS): 12.1 µM
TGI (SF-295 CNS): 24.9 µM
GI50 (SF-539 CNS): 5.53 µM
TGI (SF-539 CNS): 18.8 µM
GI50 (SK-MEL-2 melanoma): 12.2 µM
TGI (SK-MEL-2 melanoma): 26.1 µM
GI50 (SK-MEL-28 melanoma): 2.36 µM
TGI (SK-MEL-28 melanoma): 6.42 µM
GI50 (SK-MEL-5 melanoma): 11.3 µM
TGI (SK-MEL-5 melanoma): 23.7 µM
GI50 (SK-OV-3 ovarian): 14.1 µM
TGI (SK-OV-3 ovarian): 27.7 µM
GI50 (SN12C renal): 3.13 µM
TGI (SN12C renal): 12 µM
GI50 (SNB-19 CNS): 15.4 µM
TGI (SNB-19 CNS): 29.6 µM
GI50 (SNB-75 CNS): 2.43 µM
TGI (SNB-75 CNS): 13.3 µM
GI50 (SR leukemia): 2.73 µM
TGI (SR leukemia): 10.9 µM
GI50 (SW-620 colon): 2.99 µM
TGI (SW-620 colon): 9.91 µM
GI50 (T-47D breast): 3.01 µM
TGI (T-47D breast): 16 µM
GI50 (TK-10 renal): 18.9 µM
TGI (TK-10 renal): 33.2 µM
GI50 (U251 CNS): 10.8 µM
TGI (U251 CNS): 24.1 µM
GI50 (UACC-257 melanoma): 4.93 µM
TGI (UACC-257 melanoma): 18.1 µM
GI50 (UACC-62 melanoma): 4.49 µM
TGI (UACC-62 melanoma): 17.6 µM
GI50 (UO-31 renal): 3.41 µM
TGI (UO-31 renal): 17 µM
